Laboratory results from patent US10889847B2, “Kit and discs for use in disc diffusion antibiotic sensitivity testing” (YISSUM RESEARCH DEVELOPMENT COMPANY OF THE HEBREW …, priority 2015, dated 2021).

Columns and labels:
[1] = test system: E. coli clinical strain W574; experiment: Tolerance Diffusion test (TDtest), strain W574; assay type: cell-based; conditions: ertapenem disk (0.25 microgram), glucose disk in step II
Description: (§1) 2 Disc Test (TDtest) Procedure
(§2) The TDtest consists of two steps:
(§3) Step I—Incubation with Antibiotics:
(§4) Circa 10^7 bacteria at stationary phase (100 microliter) were plated on LBL nutrient agar plate. An antibiotic disc was placed on the agar. The plate with the antibiotic disc was incubated for at least 4 hours and up to 30 hours, preferably about 18 hours at 37° C.
(§5) The amount of antibiotics in each disk was adjusted to reach a concentration below the MIC in the inhibition zone after an overnight incubation at 37° C. Many commercial disks contain antibiotics in amounts that are too high for the concentration to fall below the MIC after this time. When this was the case, custom disks were prepared as specified herein below.
(§6) Step II—Incubation with Nutrient:
(§7) This step was carried out in one of the following protocols:
(§8) a. The antibiotic disk was replaced with a nutrient (i.e. 2 mg glucose) disk at the end of the antibiotic incubation time. The plate was incubated again for an additional overnight (at least 5 hours and up to 24 hours, preferably about 18 hours) at 37° C.
(§9) b. Nutrient solution (i.e., 2 mg glucose, or 5 microliter of 40% glucose solution) was added directly on the antibiotic disk, instead of replacing it.
(§10) c. Two phases disk was prepared, by impregnating 6 mg glucose on the upper side of the disk.
(§11) After the completion of the above steps, the growth of the bacteria was visually inspected.

[2] = test system: E. coli clinical strain U453; experiment: Tolerance Diffusion test (TDtest), strain U453; assay type: cell-based; conditions: ertapenem disk (0.25 microgram), glucose disk in step II
Description: as §1, §2, §3, §4, §5, §6, §7, §8, §9, §10, §11

[3] = test system: E. coli strain U453; experiment: MIC, strain U453; assay type: cell-based; conditions: Escherichia coli
[4] = test system: E. coli strain W574; experiment: MIC, strain W574; assay type: cell-based; conditions: Escherichia coli
[5] = test system: E. coli strains W574 and U453; experiment: Survival fraction in liquid culture, W574 versus U453; assay type: cell-based; conditions: ertapenem 10 microgram/ml
Description: (§12) Overnight bacterial cultures were diluted 1:100 in fresh medium containing antibiotic and incubated at 37° C. for designated time. Bacterial survival was determined by the most probable number-counting method (MPN), as described in Hurley, M. A. & Roscoe, M. E. Automated Statistical-Analysis of Microbial Enumeration by Dilution Series. J Appl. Bacteriol. 55:159-164 (1983).

[6] = at 12 hours after 1 gram dosing; cited from earlier work
[7] = test system: E. cloacae clinical strain B340; experiment: Tolerance Diffusion test (TDtest), strain B340; assay type: cell-based; conditions: ampicillin disk replaced with glucose disk after 18 hours, read at 36 hours
Description: as §1, §2, §3, §4, §5, §6, §7, §8, §9, §10
After the completion of the above steps, the growth of the bacteria was visually inspected. […]

[8] = test system: E. coli tolerant strain tbl3a; experiment: Tolerance Diffusion test (TDtest), strain tbl3a; assay type: cell-based
Description: as §1, §2, §3, §4, §5, §6, §7, §8
b. […]
Tolerant bacteria are identified by the use of two different TDtest methods, the two-disks TDtest and the single disk TDtest. […] The growth of the bacterium was monitored at several time points (0, 8, 17, 30 and 36 hours from the beginning of the test).

[9] = test system: tbl5a; experiment: Tolerance Diffusion test (TDtest), strain tbl5a, three growth media; assay type: cell-based, E. coli; conditions: after second step, LB agar, Mueller-Hinton agar, Mueller-Hinton+5% Blood agar
Description: FIG. 13A-13C show TDtest performed on three different growth media. The results are shown after the second step of TDtest examining the effect of ampicillin on tbl5a.
FIG. 13A is a LB agar plate.
FIG. 13B is a Mueller-Hinton agar plate.
FIG. 13C is a Mueller-Hinton+5% Blood agar plate.
as §1, §2, §3, §4, §5, §6, §7, §8
b. […]

[10] = test system: tbl3a; experiment: Time-kill experiment in liquid culture, tbl3a; assay type: cell-based, E. coli; conditions: for fraction of survivals: antibiotic 100 microgram/ml, after 2.6 hours
Description: as §12
These findings were verified by measuring the survival of tbl3a in liquid culture after exposure to the two antibiotics. An overnight culture was diluted and exposed either to ampicillin (100 microgram/ml) or kanamycin (100 microgram/ml). […] The large fraction of survivals in Ampicillin (12% after 2.6 hours) was predicted by the late colonies appearance, and is absent in Kanamycin (1.4E-8% after 2.6 hours).

[11] = test system: many species; conditions: in many species; cited from earlier work

SMILES	tolerance level by TDtest (colonies inside the inhibition zone after step II) [1]	tolerance level by TDtest (colonies inside the inhibition zone after step II) [2]	MIC [3] [µg/mL]	MIC [4] [µg/mL]	fraction of survival of a liquid culture, W574 versus U453 [5]	mean serum concentration [6] [microgram/ml]	tolerance by TDtest (colonies in inhibition zone) [7]	bacterial colonies in TDtest plate ([8]; after 36 hours, two-disks TDtest (glucose disk after 18 hours) or single disk TDtest)	tolerance by TDtest ([8]; ampicillin 10 microgram or kanamycin 15 microgram disk)	tolerance level by TDtest [9]	survival fraction under ampicillin relative to kanamycin ([10]; 100 microgram/ml each)	fraction of survivals [10] [%]	MIC [11]
C[C@@H](O)[C@H]1C(=O)N2C(C(=O)O)=C(S[C@@H]3CN[C@H](C(=O)Nc4cccc(C(=O)O)c4)C3)[C@H](C)[C@H]12 [ertapenem]	high tolerance	low tolerance	< 0.05	< 0.05	higher tolerance	~10	–	–	–	–	–	–	–
CC1(C)S[C@@H]2[C@H](NC(=O)[C@H](N)c3ccccc3)C(=O)N2[C@H]1C(=O)O [ampicillin]	–	–	–	–	–	–	tolerant	bacterial colonies are well seen	very tolerant	medium tolerance (“medium tolerance” is 10 to a few hundred colonies in the inhibition zone)	three orders of magnitude lower	12	around 4 microgram/ml
NC[C@H]1O[C@H](O[C@H]2[C@H](O)[C@@H](O[C@H]3O[C@H](CO)[C@@H](O)[C@H](N)[C@H]3O)[C@H](N)C[C@@H]2N)[C@H](O)[C@@H](O)[C@@H]1O [kanamycin]	–	–	–	–	–	–	–	–	–	–	–	1.4E-8	–
